1 molecule from EP0563238B1, “IMIDAZOLYL-ALKENOIC ACIDS” (SMITHKLINE BEECHAM CORPORATION, priority 1990, dated 1992) can be followed below.

In the assay the target is vascular angiotensin II receptors. The assay can be described thus: 125I-angiotensin II radioligand binding assay. Particulars: particular fraction from rat mesenteric arteries, 80 pM 125I-angiotensin II, 1 hour at 25°C; concentration needed to displace 50% of the total specifically bound angiotensin II. On the procedure:
Angiotensin II antagonist activity of the compounds of Formula (I) is assessed by in vitro and in vivo methods. In vitro antagonist activity is determined by the ability of the compounds to compete with ^125I-angiotensin II for binding to vascular angiotensin II receptors and by their ability to antagonize the contractile response to angiotensin II in the isolated rabbit aorta. In vivo activity is evaluated by the efficacy of the compounds to inhibit the pressor response to exogenous angiotensin II in conscious rats and to lower blood pressure in a rat model of renin dependent hypertension.
The radioligand binding assay is a modification of a method previously described in detail (Gunther et al., Circ. Res. 47:278, 1980). A particular fraction from rat mesenteric arteries is incubated in Tris buffer with 80 pM of ^125I-angiotensin II with or without angiotensin II antagonists for 1 hour at 25°C. The incubation is terminated by rapid filtration and receptor bound ^125I-angiotensin II trapped on the filter is quantitated with a gamma counter. The potency of angiotensin II antagonists is expressed as the IC50 which is the concentration of antagonist needed to displace 50% of the total specifically bound angiotensin II.

Each structure is given as a SMILES string.

A word on the IC50: it is the concentration that inhibits the measured activity by half. A higher IC50 goes with lower potency. With `CCCCc1ncc(/C=C(\Cc2cccs2)C(=O)O)n1-c1ccc(C(=O)O)cc1` [Example 1, (E)-3-[2-n-Butyl-1-{4-carboxyphenyl}-1H-imidazo-5-yl]-2-(2-thienyl)methyl-2-propenoic acid], the IC50 was roughly 250 nM.
